Source: ChEMBL document CHEMBL5579834 (Eur J Med Chem, 2024)

Assays:
[1] = Cytotoxicity against HEK293T cells assessed as reduction in cell viability measured after 48 hrs by MTT assay; assay type: toxicity, cell-based, HEK-293T; details: human
[2] = Drug uptake in human skin fibroblast lysosomes assessed as fold change in corrected total cell fluorescence at 50 uM measured after 2 hrs by LysoTracker Red DND-99 dye based laser scanning confocal microscopy relative to control; assay type: ADME, subcellular, Lysosome
[3] = Half-life in rat whole blood at 500 ng/ml by LC-MS/MS analysis; assay type: ADME, tissue-based

Structure (SMILES) | CC50 at 48 h [1] | fold change (FC) [2] | half-life at 500 ng/ml [3]
C[C@@H]1[C@H]2C[C@@H](C[C@H]1OC(=O)CCN1CCCCC1)C2(C)C | 334 µM | 0.37 | 
CC1(C)[C@H]2CC[C@](C)(C2)[C@H]1OC(=O)CN1CCCCC1 | 229 µM | 0.6 | 
C[C@@H]1[C@H]2C[C@@H](C[C@H]1OC(=O)CN1CCN(C)CC1)C2(C)C | 628 µM |  | 
C[C@@H]1[C@H]2C[C@@H](C[C@H]1OC(=O)CCCN1CCOCC1)C2(C)C | 116 µM |  | 
C[C@@H]1[C@H]2C[C@@H](C[C@H]1OC(=O)CCN1CCN(c3ccccc3)CC1)C2(C)C | 128 µM |  | 
CN(C)CCOc1ccc(/C(=C(/CCCl)c2ccccc2)c2ccccc2)cc1 [TOREMIFENE] | 17 µM |  | 
CN1CCN(CCC(=O)O[C@H]2C(C)(C)[C@H]3CC[C@]2(C)C3)CC1 | 454 µM | 0.33 | 
CCN1CCN(CCCC(=O)O[C@H]2C(C)(C)[C@H]3CC[C@]2(C)C3)CC1 | 404 µM |  | 
CC1(C)[C@H]2CC[C@](C)(C2)[C@H]1OC(=O)CN1CCN(c2ccccc2)CC1 | 101 µM |  | 
CC1(C)[C@H]2CC[C@](C)(C2)[C@H]1OC(=O)CCN1CCOCC1 | 318 µM |  | 
CN1CCN(CC(=O)O[C@H]2C(C)(C)[C@H]3CC[C@]2(C)C3)CC1 | 645 µM |  | 
CC1(C)[C@H]2CC[C@](C)(C2)[C@H]1OC(=O)CN1CCOCC1 | 291 µM |  | 
C[C@@H]1[C@H]2C[C@@H](C[C@H]1OC(=O)CCCN1CCN(C)CC1)C2(C)C | 164 µM |  | 
CC1CCN(CCCC(=O)O[C@H]2C(C)(C)[C@H]3CC[C@]2(C)C3)CC1 | 130 µM |  | 
CC1(C)[C@H]2CC[C@](C)(C2)[C@H]1OC(=O)CCN1CCCCC1 | 351 µM | 0.3 | 
CC1(C)[C@H]2CC[C@](C)(C2)[C@H]1OC(=O)CCCN1CCN(c2ccccc2)CC1 | 11 µM |  | 

Structure (SMILES) | CC50 at 48 h [1] | fold change (FC) [2] | half-life at 500 ng/ml [3]
CC1(C)[C@@H]2CC[C@@]1(C)[C@@H](OC(=O)CCN1CCCCC1)C2 |  |  | 20 min
CCN1CCN(CCC(=O)O[C@H]2C(C)(C)[C@H]3CC[C@]2(C)C3)CC1 | 356 µM |  | 
C[C@@H]1[C@H]2C[C@@H](C[C@H]1OC(=O)CN1CCN(c3ccccc3)CC1)C2(C)C | 59 µM |  | 
C[C@@H]1[C@H]2C[C@@H](C[C@H]1OC(=O)CCCN1CCCCC1)C2(C)C | 123 µM |  | 
CC1(C)[C@H]2CC[C@](C)(C2)[C@H]1OC(=O)CCCN1CCOCC1 | 261 µM | 0.56 | 
CC1CCN(CCC(=O)O[C@H]2C(C)(C)[C@H]3CC[C@]2(C)C3)CC1 | 188 µM |  | 
CC1(C)[C@H]2CC[C@](C)(C2)[C@H]1OC(=O)CCN1CCN(c2ccccc2)CC1 | 21 µM |  | 
C[C@@H]1[C@H]2C[C@@H](C[C@H]1OC(=O)CCCN1CCN(c3ccccc3)CC1)C2(C)C | 67 µM |  | 
CCN1CCN(CC(=O)O[C@H]2C(C)(C)[C@H]3CC[C@]2(C)C3)CC1 | 907 µM |  | 
C[C@@H]1[C@H]2C[C@@H](C[C@H]1OC(=O)CCN1CCOCC1)C2(C)C | 281 µM | 0.57 | 
CN1CCN(CCCC(=O)O[C@H]2C(C)(C)[C@H]3CC[C@]2(C)C3)CC1 | > 775 µM |  | 
CC1(C)[C@H]2CC[C@](C)(C2)[C@H]1OC(=O)CCCN1CCCCC1 | 458 µM |  | 
C[C@@H]1[C@H]2C[C@@H](C[C@H]1OC(=O)CN1CCOCC1)C2(C)C | 199 µM | 0.56 | 
CC1CCN(CC(=O)O[C@H]2C(C)(C)[C@H]3CC[C@]2(C)C3)CC1 | 241 µM |  | 
C[C@@H]1[C@H]2C[C@@H](C[C@H]1OC(=O)CCN1CCN(C)CC1)C2(C)C | 318 µM |  | 
C[C@@H]1[C@H]2C[C@@H](C[C@H]1OC(=O)CN1CCCCC1)C2(C)C | 314 µM | 0.46 | 
